Assay results taken from ChEMBL document CHEMBL4038287, “Design, synthesis, and in vitro evaluation of novel antifungal triazoles” (2017).
≈ marks a conversion by molar mass, not a printed value.

Columns and labels:
Format in all cases: functional
Nakaseomyces glabratus = assay: Antifungal activity against Candida glabrata isolate 537 by micro-broth dilution method
Trichophyton rubrum = assay: Antifungal activity against Trichophyton rubrum isolate cmccftla by micro-broth dilution method
Candida parapsilosis = assay: Antifungal activity against Candida parapsilosis isolate 22019 by micro-broth dilution method; settings: Lodderomyces parapsilosis
Candida albicans [1] = assay: Antifungal activity against Candida albicans isolate SC5314 by micro-broth dilution method
Nannizzia gypsea = assay: Antifungal activity against Microsporum gypseum isolate cmccftla by micro-broth dilution method
Aspergillus fumigatus = assay: Antifungal activity against Aspergillus fumigatus isolate 7544 by micro-broth dilution method
Cryptococcus neoformans = assay: Antifungal activity against Cryptococcus neoformans isolate 32605 by micro-broth dilution method
Candida albicans [2] = assay: Antifungal activity against Candida albicans isolate Y0109 by micro-broth dilution method

## C[C@@H](c1cc(-c2ccc(S(C)(=O)=O)cc2)no1)[C@](O)(Cn1cncn1)c1ccc(F)cc1F
Nakaseomyces glabratus
  MIC80: 0.25 µg/mL (≈ 0.527 µM)
Trichophyton rubrum
  MIC80: 1 µg/mL (≈ 2.11 µM)
Candida parapsilosis
  MIC80: 0.125 µg/mL (≈ 0.263 µM)
Candida albicans [1]
  MIC80: 0.125 µg/mL (≈ 0.263 µM)
Nannizzia gypsea
  MIC80: 4 µg/mL (≈ 8.43 µM)
Aspergillus fumigatus
  MIC80: 8 µg/mL (≈ 16.9 µM)
Cryptococcus neoformans
  MIC80: 0.25 µg/mL (≈ 0.527 µM)
Candida albicans [2]
  MIC80: 0.125 µg/mL (≈ 0.263 µM)

## C[C@@H](c1cc(-c2ccccc2F)no1)[C@](O)(Cn1cncn1)c1cc(F)ccc1F
Nakaseomyces glabratus
  MIC80: 0.0625 µg/mL (≈ 0.151 µM)
Trichophyton rubrum
  MIC80: 2 µg/mL (≈ 4.83 µM)
Candida parapsilosis
  MIC80: 1 µg/mL (≈ 2.41 µM)
Candida albicans [1]
  MIC80: 0.5 µg/mL (≈ 1.21 µM)
Nannizzia gypsea
  MIC80: > 8 µg/mL
Aspergillus fumigatus
  MIC80: > 8 µg/mL
Cryptococcus neoformans
  MIC80: 0.0625 µg/mL (≈ 0.151 µM)
Candida albicans [2]
  MIC80: 0.5 µg/mL (≈ 1.21 µM)

## C[C@@H](c1cc(-c2ccc(Cl)cc2F)no1)[C@](O)(Cn1cncn1)c1ccc(F)cc1F
Nakaseomyces glabratus
  MIC80: 0.0156 µg/mL (≈ 0.0348 µM)
Trichophyton rubrum
  MIC80: 0.25 µg/mL (≈ 0.557 µM)
Candida parapsilosis
  MIC80: 0.125 µg/mL (≈ 0.279 µM)
Candida albicans [1]
  MIC80: 0.125 µg/mL (≈ 0.279 µM)
Nannizzia gypsea
  MIC80: 2 µg/mL (≈ 4.46 µM)
Aspergillus fumigatus
  MIC80: 8 µg/mL (≈ 17.8 µM)
Cryptococcus neoformans
  MIC80: 0.0313 µg/mL (≈ 0.0697 µM)
Candida albicans [2]
  MIC80: 0.125 µg/mL (≈ 0.279 µM)

## C[C@@H](c1cc(-c2cc(F)ccc2F)no1)[C@](O)(Cn1cncn1)c1cc(F)ccc1F
Nakaseomyces glabratus
  MIC80: 0.125 µg/mL (≈ 0.289 µM)
Trichophyton rubrum
  MIC80: 8 µg/mL (≈ 18.5 µM)
Candida parapsilosis
  MIC80: 1 µg/mL (≈ 2.31 µM)
Candida albicans [1]
  MIC80: 1 µg/mL (≈ 2.31 µM)
Nannizzia gypsea
  MIC80: > 8 µg/mL
Aspergillus fumigatus
  MIC80: > 8 µg/mL
Cryptococcus neoformans
  MIC80: 0.125 µg/mL (≈ 0.289 µM)
Candida albicans [2]
  MIC80: 0.5 µg/mL (≈ 1.16 µM)

## C[C@@H](c1cc(-c2ccc(F)c(F)c2)no1)[C@](O)(Cn1cncn1)c1ccc(F)cc1F
Nakaseomyces glabratus
  MIC80: 0.0156 µg/mL (≈ 0.0361 µM)
Trichophyton rubrum
  MIC80: 0.5 µg/mL (≈ 1.16 µM)
Candida parapsilosis
  MIC80: 0.125 µg/mL (≈ 0.289 µM)
Candida albicans [1]
  MIC80: 0.125 µg/mL (≈ 0.289 µM)
Nannizzia gypsea
  MIC80: 4 µg/mL (≈ 9.25 µM)
Aspergillus fumigatus
  MIC80: 8 µg/mL (≈ 18.5 µM)
Cryptococcus neoformans
  MIC80: 0.125 µg/mL (≈ 0.289 µM)
Candida albicans [2]
  MIC80: 0.125 µg/mL (≈ 0.289 µM)

## C[C@@H](c1cc(-c2c(F)ccc(F)c2F)no1)[C@](O)(Cn1cncn1)c1ccc(F)cc1F
Nakaseomyces glabratus
  MIC80: 0.0625 µg/mL (≈ 0.139 µM)
Trichophyton rubrum
  MIC80: 0.0625 µg/mL (≈ 0.139 µM)
Candida parapsilosis
  MIC80: 0.125 µg/mL (≈ 0.278 µM)
Candida albicans [1]
  MIC80: 0.25 µg/mL (≈ 0.555 µM)
Nannizzia gypsea
  MIC80: 0.5 µg/mL (≈ 1.11 µM)
Aspergillus fumigatus
  MIC80: 2 µg/mL (≈ 4.44 µM)
Cryptococcus neoformans
  MIC80: 0.0625 µg/mL (≈ 0.139 µM)
Candida albicans [2]
  MIC80: 0.125 µg/mL (≈ 0.278 µM)

## C[C@@H](c1cc(-c2ccc([N+](=O)[O-])cc2)no1)[C@](O)(Cn1cncn1)c1ccc(F)cc1F
Nakaseomyces glabratus
  MIC80: 0.5 µg/mL (≈ 1.13 µM)
Trichophyton rubrum
  MIC80: 1 µg/mL (≈ 2.27 µM)
Candida parapsilosis
  MIC80: 0.5 µg/mL (≈ 1.13 µM)
Candida albicans [1]
  MIC80: 0.125 µg/mL (≈ 0.283 µM)
Nannizzia gypsea
  MIC80: 2 µg/mL (≈ 4.53 µM)
Aspergillus fumigatus
  MIC80: > 8 µg/mL
Cryptococcus neoformans
  MIC80: 0.125 µg/mL (≈ 0.283 µM)
Candida albicans [2]
  MIC80: 0.125 µg/mL (≈ 0.283 µM)

## C[C@@H](c1cc(-c2ccc(F)cc2)no1)[C@](O)(Cn1cncn1)c1ccc(F)cc1F
Nakaseomyces glabratus
  MIC80: 0.0313 µg/mL (≈ 0.0755 µM)
Trichophyton rubrum
  MIC80: 0.0625 µg/mL (≈ 0.151 µM)
Candida parapsilosis
  MIC80: 0.0625 µg/mL (≈ 0.151 µM)
Candida albicans [1]
  MIC80: 0.25 µg/mL (≈ 0.603 µM)
Nannizzia gypsea
  MIC80: 0.5 µg/mL (≈ 1.21 µM)
Aspergillus fumigatus
  MIC80: 2 µg/mL (≈ 4.83 µM)
Cryptococcus neoformans
  MIC80: 0.125 µg/mL (≈ 0.302 µM)
Candida albicans [2]
  MIC80: 0.125 µg/mL (≈ 0.302 µM)

## C[C@@H](c1cc(-c2ccc(Cl)c(F)c2)no1)[C@](O)(Cn1cncn1)c1ccc(F)cc1F
Nakaseomyces glabratus
  MIC80: 0.25 µg/mL (≈ 0.557 µM)
Trichophyton rubrum
  MIC80: 0.5 µg/mL (≈ 1.11 µM)
Candida parapsilosis
  MIC80: 0.5 µg/mL (≈ 1.11 µM)
Candida albicans [1]
  MIC80: 0.0313 µg/mL (≈ 0.0697 µM)
Nannizzia gypsea
  MIC80: 4 µg/mL (≈ 8.91 µM)
Aspergillus fumigatus
  MIC80: > 8 µg/mL
Cryptococcus neoformans
  MIC80: 0.25 µg/mL (≈ 0.557 µM)
Candida albicans [2]
  MIC80: 0.0156 µg/mL (≈ 0.0348 µM)

## C[C@@H](c1cc(-c2cccc(F)c2F)no1)[C@](O)(Cn1cncn1)c1cc(F)ccc1F
Nakaseomyces glabratus
  MIC80: 0.125 µg/mL (≈ 0.289 µM)
Trichophyton rubrum
  MIC80: 8 µg/mL (≈ 18.5 µM)
Candida parapsilosis
  MIC80: 2 µg/mL (≈ 4.63 µM)
Candida albicans [1]
  MIC80: 0.5 µg/mL (≈ 1.16 µM)
Nannizzia gypsea
  MIC80: > 8 µg/mL
Aspergillus fumigatus
  MIC80: > 8 µg/mL
Cryptococcus neoformans
  MIC80: 0.125 µg/mL (≈ 0.289 µM)
Candida albicans [2]
  MIC80: 0.5 µg/mL (≈ 1.16 µM)

## C[C@@H](c1cc(-c2cc(F)ccc2F)no1)[C@](O)(Cn1cncn1)c1ccc(F)cc1F
Nakaseomyces glabratus
  MIC80: 0.0625 µg/mL (≈ 0.145 µM)
Trichophyton rubrum
  MIC80: 0.125 µg/mL (≈ 0.289 µM)
Candida parapsilosis
  MIC80: 0.125 µg/mL (≈ 0.289 µM)
Candida albicans [1]
  MIC80: 0.0625 µg/mL (≈ 0.145 µM)
Nannizzia gypsea
  MIC80: 1 µg/mL (≈ 2.31 µM)
Aspergillus fumigatus
  MIC80: 4 µg/mL (≈ 9.25 µM)
Cryptococcus neoformans
  MIC80: 0.125 µg/mL (≈ 0.289 µM)
Candida albicans [2]
  MIC80: 0.0625 µg/mL (≈ 0.145 µM)

## C[C@@H](c1cc(-c2ccc(F)c(F)c2)no1)[C@](O)(Cn1cncn1)c1cc(F)ccc1F
Nakaseomyces glabratus
  MIC80: 0.0156 µg/mL (≈ 0.0361 µM)
Trichophyton rubrum
  MIC80: 1 µg/mL (≈ 2.31 µM)
Candida parapsilosis
  MIC80: 0.25 µg/mL (≈ 0.578 µM)
Candida albicans [1]
  MIC80: 0.125 µg/mL (≈ 0.289 µM)
Nannizzia gypsea
  MIC80: > 8 µg/mL
Aspergillus fumigatus
  MIC80: > 8 µg/mL
Cryptococcus neoformans
  MIC80: 0.125 µg/mL (≈ 0.289 µM)
Candida albicans [2]
  MIC80: 0.125 µg/mL (≈ 0.289 µM)

## C[C@@H](c1cc(-c2cc(F)cc(F)c2)no1)[C@](O)(Cn1cncn1)c1ccc(F)cc1F
Nakaseomyces glabratus
  MIC80: 0.0625 µg/mL (≈ 0.145 µM)
Trichophyton rubrum
  MIC80: 0.25 µg/mL (≈ 0.578 µM)
Candida parapsilosis
  MIC80: 0.25 µg/mL (≈ 0.578 µM)
Candida albicans [1]
  MIC80: 0.125 µg/mL (≈ 0.289 µM)
Nannizzia gypsea
  MIC80: 2 µg/mL (≈ 4.63 µM)
Aspergillus fumigatus
  MIC80: 4 µg/mL (≈ 9.25 µM)
Cryptococcus neoformans
  MIC80: 0.125 µg/mL (≈ 0.289 µM)
Candida albicans [2]
  MIC80: 0.0625 µg/mL (≈ 0.145 µM)

## C[C@@H](c1cc(-c2ccc(C#N)cc2)no1)[C@](O)(Cn1cncn1)c1ccc(F)cc1F
Nakaseomyces glabratus
  MIC80: 0.0625 µg/mL (≈ 0.148 µM)
Trichophyton rubrum
  MIC80: 0.125 µg/mL (≈ 0.297 µM)
Candida parapsilosis
  MIC80: 0.125 µg/mL (≈ 0.297 µM)
Candida albicans [1]
  MIC80: 0.25 µg/mL (≈ 0.593 µM)
Nannizzia gypsea
  MIC80: 1 µg/mL (≈ 2.37 µM)
Aspergillus fumigatus
  MIC80: 8 µg/mL (≈ 19 µM)
Cryptococcus neoformans
  MIC80: 0.125 µg/mL (≈ 0.297 µM)
Candida albicans [2]
  MIC80: 0.25 µg/mL (≈ 0.593 µM)

## C[C@@H](c1cc(-c2ccc(OC(F)F)cc2)no1)[C@](O)(Cn1cncn1)c1ccc(F)cc1F
Nakaseomyces glabratus
  MIC80: 0.0625 µg/mL (≈ 0.135 µM)
Trichophyton rubrum
  MIC80: 0.125 µg/mL (≈ 0.27 µM)
Candida parapsilosis
  MIC80: 0.125 µg/mL (≈ 0.27 µM)
Candida albicans [1]
  MIC80: 0.0625 µg/mL (≈ 0.135 µM)
Nannizzia gypsea
  MIC80: 1 µg/mL (≈ 2.16 µM)
Aspergillus fumigatus
  MIC80: 8 µg/mL (≈ 17.3 µM)
Cryptococcus neoformans
  MIC80: 0.125 µg/mL (≈ 0.27 µM)
Candida albicans [2]
  MIC80: 0.0625 µg/mL (≈ 0.135 µM)

## C[C@@H](c1cc(-c2cccc(F)c2F)no1)[C@](O)(Cn1cncn1)c1ccc(F)cc1F
Nakaseomyces glabratus
  MIC80: 0.125 µg/mL (≈ 0.289 µM)
Trichophyton rubrum
  MIC80: 0.125 µg/mL (≈ 0.289 µM)
Candida parapsilosis
  MIC80: 0.25 µg/mL (≈ 0.578 µM)
Candida albicans [1]
  MIC80: 0.0625 µg/mL (≈ 0.145 µM)
Nannizzia gypsea
  MIC80: 0.5 µg/mL (≈ 1.16 µM)
Aspergillus fumigatus
  MIC80: 2 µg/mL (≈ 4.63 µM)
Cryptococcus neoformans
  MIC80: 0.125 µg/mL (≈ 0.289 µM)
Candida albicans [2]
  MIC80: 0.0625 µg/mL (≈ 0.145 µM)
